Source: patent US12304894B2, “Derivatives of adamantyl oxadiazoles and pharmaceutically acceptable solvates, hydrates and salts thereof, pharmaceutical composition comprising same, synthesis method, suitable for use as effective and selective inhibitors of the reductase activity of the enzyme 11-beta dehydrogenase type 1 …” (PONTIFICIA UNIVERSIDAD CATOLICA DE CHILE, priority 2019, dated 2025)

target: T1, recombinant 11β-HSD1 enzyme (Homo sapiens (Human), UniProt P28845); experiment: 11β-HSD1 reductase activity (HTRF Cortisol Kit); type: biochemical; conditions: 266 nM cortisone, 333 μM NADPH, read-out: 11b-HSD1 reductase (HTRF) IC50
Experimental: Determination of 11β-HSD1 Reductase Activity
First, stock solutions of the compounds were prepared in DMSO at a concentration of […], of which serial dilutions were made in order to determine the efficacy curve.
As for the recombinant 11β-HSD1 enzyme (Cayman Chemical, MI, USA; Item No. 10007815), it was prepared in Tris Buffer 20 mM EDTA 5 mM pH 6.0 (Tris buffer) at different dilutions.
Initially, the enzyme concentration to be used in the assays in order to evaluate the biological activity of the compounds was determined. The Cortisol Kit product (Cisbio, MA, USA; Cat no. 62CRTPEG) was used for that purpose.
The protocol consisted of preparing the reaction buffer, adding 266 nM cortisone and 333 μM NADPH in Tris buffer. Then, this reaction buffer is added to the wells of the HTRF (Homogeneous Time Resolved Fluorescence) reaction plate together with the enzyme in a 4:1 ratio respectively, and incubated for 2 hours at 37° C. In the case of the control wells, two wells with Tris buffer were added, without compounds.
After the incubation time, the reagents of the Cortisol kit were added, Cortisol d2 and Cortisol cryptate in sample ratio, Cortisol d2 and cortisol cryptate 2:1:1, in a quantity according to the size of the well as indicated by the supplier (for the negative control of the kit, the cortisol d2 is replaced by the kit's reconstitution buffer). This reaction is incubated for 1 hour at room temperature in order to later read the fluorescence at 665 and 620 nm.
Once the enzyme concentration to be used has been determined, the cortisol kit protocol is continued to determine the efficacy curve for the compounds. As previously done, a plate for HTRF was prepared adding to each well of the reaction buffer, the recombinant 11β-HSD1 enzyme and the compounds to be assayed in a 3:1:1 ratio, respectively. The plate was subsequently incubated at 37° C. for 2 hours.
After the incubation time, the reagents of the cortisol kit, cortisol d2 and cortisol cryptate, are added, and were incubated again for 1 hour at room temperature. Finally, the fluorescence of each well was determined at 665 and 620 nm.

T1 sequence (P28845 whole entry): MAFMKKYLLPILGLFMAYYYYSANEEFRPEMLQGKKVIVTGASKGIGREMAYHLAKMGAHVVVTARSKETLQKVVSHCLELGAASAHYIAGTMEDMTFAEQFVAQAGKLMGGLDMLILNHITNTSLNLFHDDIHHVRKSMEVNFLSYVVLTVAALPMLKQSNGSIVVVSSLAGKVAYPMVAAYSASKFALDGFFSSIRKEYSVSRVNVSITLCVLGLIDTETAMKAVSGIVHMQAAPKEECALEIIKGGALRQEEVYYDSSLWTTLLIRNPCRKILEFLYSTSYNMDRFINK

| SMILES | IC50 [nM] |
| --- | --- |
| Oc1ccc(CCc2nc(C34CC5CC(CC(C5)C3)C4)no2)cc1 [BD-37, 1-(4-hydroxyphenyl)-2-(3-adamantyl-1,2,4-oxadiazol-5-yl)ethane] | 1.1 |
| COc1cccc(CCc2nc(C34CC5CC(CC(C5)C3)C4)no2)c1 [BD-38, 1-(3-methoxyphenyl)-2-(3-adamantyl-1,2,4-oxadiazol-5-yl)ethane] | 102 |
| c1cc(CCc2nc(C34CC5CC(CC(C5)C3)C4)no2)ccn1 [BD-39, 1-(4-pyridyl)-2-(3-adamantyl-1,2,4-oxadiazol-5-yl)ethane] | 97 |
| CC(C)(C)c1ccc(CCc2nc(C34CC5CC(CC(C5)C3)C4)no2)cc1 [BD-41, 1-(4-tert-butylphenyl)-2-(3-adamantyl-1,2,4-oxadiazol-5-yl)ethane] | 102 |
| Fc1cccc(CCc2nc(C34CC5CC(CC(C5)C3)C4)no2)c1 [BD-42, 1-(3-fluorophenyl)-2-(3-adamantyl-1,2,4-oxadiazol-5-yl)ethane] | 92 |
| c1ccc(CCc2nc(C34CC5CC(CC(C5)C3)C4)no2)nc1 [BD-45, 1-(2-pyridyl)-2-(3-adamantyl-1,2,4-oxadiazol-5-yl)ethane] | 1.1 |
| O=[N+]([O-])c1ccc(CCc2nc(C34CC5CC(CC(C5)C3)C4)no2)cc1 [BD-46, 1-(4-nitrophenyl)-2-(3-adamantyl-1,2,4-oxadiazol-5-yl)ethane] | 24 |

target: T1, recombinant 11β-HSD1 enzyme; experiment: 11β-HSD1 oxidase activity (HTRF Cortisol Kit); type: biochemical; conditions: remaining activity at 100 nM compound
Experimental: Determination of 11β-HSD1 Oxidase Activity
The Cortisol Kit (Cisbio) product was used for that purpose.
For the analysis, the compounds are reconstituted in DMSO in a stock of 10 mM concentration, from which serial dilutions were prepared for the efficiency curve.
The recombinant 11β-HSD1 enzyme dilutions were prepared in 20 mM Tris Buffer 5 mM EDTA pH 6.0 (Tris buffer).
Initially, the enzyme concentration to be used was determined. For this purpose, a plate for HRTF was prepared with Tris buffer with 100 nM cortisol and 200 μM NADP+, including in the wells of the plate for HTRF together with the enzyme in a 4:1 ratio, respectively, and incubated for 2 hours at 37° C. After this time, the reagents of the Cortisol kit, Cortisol d2 and Cortisol cryptate in sample ratio, Cortisol d2 and cortisol cryptate 2:1:1 were added, incubating this new reaction for 1 hour at room temperature. Subsequently, the fluorescence was determined at 665 and 620 nm.
An HRTF plate was again prepared, where the reaction buffer, the recombinant 11β-HSD1 enzyme and the compound were added in each well in a 3:1:1 ratio, respectively. The plate was incubated at 37° C. for 2 hours. After the incubation time, the reagents of the cortisol kit, cortisol d2 and cortisol cryptate, were added as indicated above. They were then incubated at room temperature for 1 hour to finally read the fluorescence at 665 and 620 nm.

| SMILES | 11b-HSD1 oxidase (activ rem %) 100 nM [%] |
| --- | --- |
| Oc1ccc(CCc2nc(C34CC5CC(CC(C5)C3)C4)no2)cc1 [BD-37, 1-(4-hydroxyphenyl)-2-(3-adamantyl-1,2,4-oxadiazol-5-yl)ethane] | 109.6 |
| COc1cccc(CCc2nc(C34CC5CC(CC(C5)C3)C4)no2)c1 [BD-38, 1-(3-methoxyphenyl)-2-(3-adamantyl-1,2,4-oxadiazol-5-yl)ethane] | 88.1 |
| c1cc(CCc2nc(C34CC5CC(CC(C5)C3)C4)no2)ccn1 [BD-39, 1-(4-pyridyl)-2-(3-adamantyl-1,2,4-oxadiazol-5-yl)ethane] | 89.4 |
| CC(C)(C)c1ccc(CCc2nc(C34CC5CC(CC(C5)C3)C4)no2)cc1 [BD-41, 1-(4-tert-butylphenyl)-2-(3-adamantyl-1,2,4-oxadiazol-5-yl)ethane] | 85.9 |
| Fc1cccc(CCc2nc(C34CC5CC(CC(C5)C3)C4)no2)c1 [BD-42, 1-(3-fluorophenyl)-2-(3-adamantyl-1,2,4-oxadiazol-5-yl)ethane] | 83.0 |
| c1ccc(CCc2nc(C34CC5CC(CC(C5)C3)C4)no2)nc1 [BD-45, 1-(2-pyridyl)-2-(3-adamantyl-1,2,4-oxadiazol-5-yl)ethane] | 97.4 |
| O=[N+]([O-])c1ccc(CCc2nc(C34CC5CC(CC(C5)C3)C4)no2)cc1 [BD-46, 1-(4-nitrophenyl)-2-(3-adamantyl-1,2,4-oxadiazol-5-yl)ethane] | 104.6 |

same assay, conditions: remaining activity at 100 uM compound

| SMILES | 11b-HSD1 oxidase (activ rem %) 100 uM [%] |
| --- | --- |
| Oc1ccc(CCc2nc(C34CC5CC(CC(C5)C3)C4)no2)cc1 [BD-37, 1-(4-hydroxyphenyl)-2-(3-adamantyl-1,2,4-oxadiazol-5-yl)ethane] | 88.1 |
| COc1cccc(CCc2nc(C34CC5CC(CC(C5)C3)C4)no2)c1 [BD-38, 1-(3-methoxyphenyl)-2-(3-adamantyl-1,2,4-oxadiazol-5-yl)ethane] | 100.5 |
| c1cc(CCc2nc(C34CC5CC(CC(C5)C3)C4)no2)ccn1 [BD-39, 1-(4-pyridyl)-2-(3-adamantyl-1,2,4-oxadiazol-5-yl)ethane] | 75.3 |
| CC(C)(C)c1ccc(CCc2nc(C34CC5CC(CC(C5)C3)C4)no2)cc1 [BD-41, 1-(4-tert-butylphenyl)-2-(3-adamantyl-1,2,4-oxadiazol-5-yl)ethane] | 86.1 |
| Fc1cccc(CCc2nc(C34CC5CC(CC(C5)C3)C4)no2)c1 [BD-42, 1-(3-fluorophenyl)-2-(3-adamantyl-1,2,4-oxadiazol-5-yl)ethane] | 89.8 |
| O=[N+]([O-])c1ccc(CCc2nc(C34CC5CC(CC(C5)C3)C4)no2)cc1 [BD-46, 1-(4-nitrophenyl)-2-(3-adamantyl-1,2,4-oxadiazol-5-yl)ethane] | 65.4 |

system: 11β-HSD2; experiment: 11β-HSD2 oxidase activity in human hepatic microsomes (HTRF Cortisol Kit); type: biochemical; conditions: remaining activity at 100 nM compound
Experimental: Determination of 11β-HSD2 Oxidase Activity
The concentration of cortisone produced in the reaction, with and without the compounds, was determined using the Cortisol Kit (Cisbio) product in order to evaluate the 11β-HSD2 oxidase activity.
As in the previous assays, the compounds are reconstituted in DMSO to 10 mM stock, in order to subsequently make serial dilutions to determine the efficacy curve.
To perform the assay, the HTRF plate was prepared containing Tris buffer, 100 nM cortisol and 200 μM NAD^+. Enzyme is added to the corresponding wells in a 4:1 ratio, respectively, and incubated for 2 hours at 37° C. For the kit control, two wells are added only with Tris buffer.
After the incubation time, the reagents of the Cortisol kit, Cortisol d2 and Cortisol cryptate, in a sample ratio, Cortisol d2 and cortisol cryptate 2:1:1 are added. For the negative control, cortisol d2 was replaced in some wells by the kit's reconstitution buffer. The plate was incubated for 1 hour at room temperature to later read at 665 and 620 nm.
For this purpose, the reaction buffer was prepared and subsequently, in a plate for HTRF, the reaction buffer, the microsomes in a concentration of 5 mg/mL and the compound in a ratio of 3:1:1, respectively, were added to each well. In the case of reaction controls, the reaction buffer without cortisol and without compound is included for the negative control. For the positive control, no compound is added, and for the kit controls, only the reaction buffer is added to the negative and positive control wells.
After incubating the plate for 2 hours, the reagents of the cortisol kit, cortisol d2 and cortisol cryptate, are added to the corresponding wells as indicated above. They are then incubated at room temperature for 1 hour to finally read the 665 and 620 nm fluorescence.

| SMILES | 11b-HSD2 oxidase (activ rem %) Microcosms 100 nM [%] |
| --- | --- |
| Oc1ccc(CCc2nc(C34CC5CC(CC(C5)C3)C4)no2)cc1 [BD-37, 1-(4-hydroxyphenyl)-2-(3-adamantyl-1,2,4-oxadiazol-5-yl)ethane] | 58.3 |
| COc1cccc(CCc2nc(C34CC5CC(CC(C5)C3)C4)no2)c1 [BD-38, 1-(3-methoxyphenyl)-2-(3-adamantyl-1,2,4-oxadiazol-5-yl)ethane] | 61.9 |
| c1cc(CCc2nc(C34CC5CC(CC(C5)C3)C4)no2)ccn1 [BD-39, 1-(4-pyridyl)-2-(3-adamantyl-1,2,4-oxadiazol-5-yl)ethane] | 59.2 |
| CC(C)(C)c1ccc(CCc2nc(C34CC5CC(CC(C5)C3)C4)no2)cc1 [BD-41, 1-(4-tert-butylphenyl)-2-(3-adamantyl-1,2,4-oxadiazol-5-yl)ethane] | 49.7 |
| Fc1cccc(CCc2nc(C34CC5CC(CC(C5)C3)C4)no2)c1 [BD-42, 1-(3-fluorophenyl)-2-(3-adamantyl-1,2,4-oxadiazol-5-yl)ethane] | 59.2 |
| c1ccc(CCc2nc(C34CC5CC(CC(C5)C3)C4)no2)nc1 [BD-45, 1-(2-pyridyl)-2-(3-adamantyl-1,2,4-oxadiazol-5-yl)ethane] | 70.2 |
| O=[N+]([O-])c1ccc(CCc2nc(C34CC5CC(CC(C5)C3)C4)no2)cc1 [BD-46, 1-(4-nitrophenyl)-2-(3-adamantyl-1,2,4-oxadiazol-5-yl)ethane] | 62.0 |
